Test results taken from US20180312473A1, “PHENAZINE DERIVATIVES AS ANTIMICROBIAL AGENTS” (priority 2015, published 2018).
In brackets after ≈: the same amount, converted by molar mass. Like-named read-outs stand apart in the source and are kept apart here.

Assays:
[1] = tested on: MRSA-2 (methicillin-resistant Staphylococcus aureus clinical isolate); experiment: MIC assay (broth microdilution, CLSI); assay type: cell-based; settings: for MIC: read-out: MIC, MRSA-2
[2] = tested on: MRSA-1 (methicillin-resistant Staphylococcus aureus clinical isolate); experiment: MIC assay (broth microdilution, CLSI); assay type: cell-based; settings: read-out: MIC, MRSA-1
[3] = tested on: Staphylococcus epidermidis (ATCC 12228); experiment: MIC assay (broth microdilution, CLSI); assay type: cell-based; settings: Staphylococcus epidermidis
human red blood cells = experiment: Hemolysis assay with red blood cells; settings: 200 μM; for % Hemolysis (200 μM): 1 h
Summary of the method: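 Hemolysis expressed as percent of the Triton X signal with DMSO as zero, using OD405 of supernatant. Compounds from DMSO stocks were incubated with triple-washed human erythrocytes for 1 hour at 37° C. before centrifugation; three independent experiments.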

[4] = tested on: MRSA-2 planktonic cells and biofilms; experiment: Calgary Biofilm Device (CBD) assay, MBC/MBEC; assay type: cell-based, Staphylococcus aureus; settings: for MBC: Staphylococcus aureus, MRSA
A. baumannii 19606 = experiment: MIC assay (broth microdilution, CLSI); assay type: cell-based, Acinetobacter baumannii; settings: Acinetobacter baumannii, 19606, read-out: A. baumannii 19606 MIC
P. aeruginosa (PAO1) = experiment: MIC assay (broth microdilution, CLSI); assay type: cell-based; settings: Pseudomonas aeruginosa, PAO1, read-out: PAO1 MIC
K. pneumoniae 13883 = experiment: MIC assay (broth microdilution, CLSI); assay type: cell-based, Klebsiella pneumoniae; settings: Klebsiella pneumoniae, 13883, read-out: K. pneumoniae 13883 MIC
E. coli UAEC-1 = experiment: MIC assay (broth microdilution, CLSI); assay type: cell-based; settings: Escherichia coli, UAEC1, read-out: E. coli UAEC-1 MIC
MRSA BAA-1707 = experiment: MIC assay (broth microdilution, CLSI); settings: Staphylococcus aureus, read-out: MIC, MRSA BAA-1707
MRSA BAA-44 = experiment: MIC assay (broth microdilution, CLSI); settings: Staphylococcus aureus, read-out: MIC, MRSA BAA-44
[5] = tested on: Enterococcus faecium (ATCC 700221), VRE; experiment: MIC assay (broth microdilution, CLSI); assay type: cell-based; settings: b lowest concentration tested
[6] = tested on: MRSE (S. epidermidis ATCC 35984) planktonic cells and biofilms; experiment: Calgary Biofilm Device (CBD) assay, MBC/MBEC; assay type: cell-based, Staphylococcus epidermidis; settings: Staphylococcus epidermidis; Table 8; read-out: MRSE 35984 MBC
[7] = tested on: VRE (E. faecium ATCC 700221) planktonic cells and biofilms; experiment: Calgary Biofilm Device (CBD) assay, MBC/MBEC; assay type: cell-based, Enterococcus faecium; settings: Enterococcus; Table 8; c lowest concentration tested; read-out: VRE 700221 MBC
[8] = tested on: S. aureus clinical isolate SA 129; experiment: MIC assay (broth microdilution, CLSI); settings: Staphylococcus aureus, read-out: MIC, SA 129
[9] = tested on: S. aureus clinical isolate SA 138; experiment: MIC assay (broth microdilution, CLSI); settings: Staphylococcus aureus, read-out: MIC, SA 138
[10] = tested on: MRSA BAA-1707 planktonic cells and biofilms; experiment: Calgary Biofilm Device (CBD) assay, MBC/MBEC; settings: Staphylococcus aureus, read-out: MRSA BAA-1707 MBC
MRSA-2 = experiment: MIC assay with Tiron or metal(II) cation co-treatment; assay type: cell-based, Staphylococcus aureus; settings: Staphylococcus aureus; MRSA-2, 200 μM iron(II); read-out: MIC with Fe^2+
[11] = tested on: MRSA-2 persister cells (stationary cultures); settings: 100 μM; for MRSA-2 stationary killing: reduction of viable cells over 24 h
[12] = Table 7, read-out: MIC, VRE 700221

Question: For `Oc1c(Br)cc(Br)c2nc3cc4ccccc4cc3nc12` [Compound 19], which MIC ([1]; Staphylococcus aureus, MRSA) is on record?
Answer: > 100 µM

Question: What about the “MIC, MRSA-2” value ([1]; Table 2B, a midpoint of 2-fold range, * partial growth inhibition at highest concentration) of the same compound?
Answer: >100* μM

Question: And the MIC ([1]; Table 7, a midpoint of 2-fold range, b lowest concentration tested)?
Answer: >100 µM

Question: And the MIC ([2]; Staphylococcus aureus, MRSA)?
Answer: 12.5 µM (≈ 5.05 µg/mL)

Question: What about the MIC ([2]; Table 2B, b lowest concentration tested) of the same compound?
Answer: 12.5 µM (≈ 5.05 µg/mL)

Question: What about the MIC ([3]; ATCC12228, read-out: MIC, S. epidermidis 12228) of the same compound?
Answer: 12.5 µM (≈ 5.05 µg/mL)

Question: And the MIC ([3]; ATCC12228, read-out: MIC, Staphylococcus epidermidis (ATCC 12228))?
Answer: 12.5 µM (≈ 5.05 µg/mL)

Question: And the “% Hemolysis (200 μM)” value (human red blood cells; 37 °C)?
Answer: ≤1%

Question: What about the “% Hemolysis at 200 μM” value (human red blood cells; red blood cells) of the same compound?
Answer: <1%

Question: And the “% Hemolysis at 200 μM” value (human red blood cells; Table 8, human red blood cells)?
Answer: ≤1%

Question: And the MBC ([4]; read-out: MBC, MRSA-2)?
Answer: 200 µM (≈ 80.8 µg/mL)

Question: What about the MBC ([4]; read-out: MRSA-2 MBC) of the same compound?
Answer: 200 µM (≈ 80.8 µg/mL)

Question: And the “MRSA-2 MBC” value ([4]; Table 8, a/b 2-/4-fold range in independent experiments)?
Answer: 200/>200 μM

Question: What about the MIC (A. baumannii 19606) of the same compound?
Answer: > 100 µM

Question: What about the MIC (P. aeruginosa (PAO1)) of the same compound?
Answer: > 100 µM

Question: What about the MIC (K. pneumoniae 13883) of the same compound?
Answer: > 100 µM

Question: And the MIC (E. coli UAEC-1)?
Answer: > 100 µM

Question: And the MIC (MRSA BAA-1707)?
Answer: 50 µM (≈ 20.2 µg/mL)

Question: What about the MIC (MRSA BAA-44) of the same compound?
Answer: 75 µM (≈ 30.3 µg/mL)

Question: For `CCCCc1cc(Br)c(O)c2nc3ccccc3nc12` [Compound 22, 2-Bromo-4-butyl-1-hydroxyphenazine], which MIC [5, 12] is on record?
Answer: 0.78 µM (≈ 0.258 µg/mL)

Question: What about the MBC ([4]; Table 8, a/b 2-/4-fold range in independent experiments, read-out: MRSA-2 MBC) of the same compound?
Answer: 46.9 µM (≈ 15.5 µg/mL)

Question: And the MBC [6]?
Answer: 11.7 µM (≈ 3.88 µg/mL)

Question: What about the MBC [7] of the same compound?
Answer: 2 µM (≈ 0.662 µg/mL)

Question: And the melting point?
Answer: 135 to 137 °C

Question: What about the MIC [8] of the same compound?
Answer: 1.17 µM (≈ 0.388 µg/mL)

Question: What about the MIC [9] of the same compound?
Answer: 3.13 µM (≈ 1.04 µg/mL)

Question: And the MBC [10]?
Answer: 46.9 µM (≈ 15.5 µg/mL)

Question: With `CC(=O)NC[C@H]1CN(c2ccc(N3CCOCC3)c(F)c2)C(=O)O1` [Linezolid, linezolid, reference compound] as the compound, how does the MIC ([1]; Staphylococcus aureus, MRSA, Table 7, a midpoint of 2-fold range, b lowest concentration tested) read?
Answer: 3.13 µM (≈ 1.06 µg/mL)

Question: And the MIC ([5]; Enterococcus faecium, Table 2B, read-out: MIC, Enterococcus faecium (ATCC 700221))?
Answer: 3.13 µM (≈ 1.06 µg/mL)

Question: And the MIC [5, 12]?
Answer: 3.13 µM (≈ 1.06 µg/mL)

Question: And the “% Hemolysis (200 μM)” value (human red blood cells; human, pH 7.2)?
Answer: ≤1%

Question: And the MBC [7]?
Answer: 469 µM (≈ 158 µg/mL)

Question: What about the MIC (MRSA-2) of the same compound?
Answer: 6.25 µM

Question: What about the “log reduction of MRSA-2 persisters after 3 hours” value ([11]; 3 hours) of the same compound?
Answer: 2 log

Question: And the MRSA-2 stationary killing [11]?
Answer: ~1 log

Question: What about the MRSA-2 stationary killing ([11]; listed as linezolid) of the same compound?
Answer: 1 log

Question: What about the MBC [10] of the same compound?
Answer: 31.3 µM (≈ 10.6 µg/mL)
